Counter-ions that a name gives are not always drawn. Like-named read-outs stand apart in the source and are kept apart here.
Tested on: HIV
Assay: HIV MT4 Assay (antiviral HIV activity in MT-4 cells)
Assay type: cell-based
Description: Antiviral HIV activity and cytotoxicity values for compounds of the invention from Table 1 were measured in parallel in the HTLV-1 transformed cell line MT-4 based on the method previously described (Hazen et al., 2007, In vitro antiviral activity of the novel, tyrosyl-based human immunodeficiency virus (HIV) type 1 protease inhibitor brecanavir (GW640385) in combination with other antiretrovirals and against a panel of protease inhibitor-resistant HIV (Hazen et al., “In vitro antiviral activity of the novel, tyrosyl-based human immunodeficiency virus (HIV) type 1 protease inhibitor brecanavir (GW640385) in combination with other antiretrovirals and against a panel of protease inhibitor-resistant HIV”, Antimicrob. Agents Chemother. 2007, 51: 3147-3154; and Pauwels et al., “Sensitive and rapid assay on MT-4 cells for the detection of antiviral compounds against the AIDS virus”, (J. of Virological Methods 1987, 16: 171-185).
Luciferase activity was measured 96 hours later by adding a cell titer glo (Promega, Madison, Wis.). Percent inhibition of cell protection data was plotted relative to no compound control. Under the same condition, cytotoxicity of the compounds was determined using cell titer Glo™ (Promega, Madison, Wis.). IC50s were determined from a 10 point dose response curve using 3-4-fold serial dilution for each compound, which spans a concentration range >1000 fold.
These values are plotted against the molar compound concentrations using the standard four parameter logistic equation: y=((Vmax*x^n)/(K^n+x^n))+Y^2
Y^2=minimum y n=slope factor
Vmax=maximum y x=compound concentration [M]

[1] = Human immunodeficiency virus 1, MT4, HTLV-1 transformed cell line MT-4, luciferase activity measured 96 hours later, Table 3, read-out: HIV MT4 Assay IC50
[2] = MT4, 96 h, read-out: MT4 (IC50)

Row | SMILES | IC50 [1] [nM] | IC50 [2] [nM]
1 | Cn1c(C(OC(C)(C)C)C(=O)O)c(-c2ccc(Cl)cc2)c2ccn(Cc3cn4ccccc4n3)c2c1=O (stereo not drawn) [Example 10, 2-(tert-butoxy)-2-(4-(4-chlorophenyl)-1-(imidazo[1,2-a]pyridin-2-ylmethyl)-6-methyl-7-oxo-6,7-dihydro-1H-pyrrolo[2,3-c]pyridin-5-yl)acetic acid] | 3000 | 3000
2 | Cc1ccc(-c2c(C(OC(C)(C)C)C(=O)O)n(C)c(=O)c3c2ccn3Cc2ccc3nonc3c2)cc1 (stereo not drawn) [Example 20, 2-(1-(benzo[c][1,2,5]oxadiazol-5-ylmethyl)-6-methyl-7-oxo-4-(p-tolyl)-6,7-dihydro-1H-pyrrolo[2,3-c]pyridin-5-yl)-2-(tert-butoxy)acetic acid] | 160 | 160
3 | Cc1c(-c2c(C(OC(C)(C)C)C(=O)O)n(C)c(=O)c3c2ccn3CC2CCOCC2)ccc2c1CCCO2 (stereo not drawn) [Example 52, 2-(tert-butoxy)-2-(6-methyl-4-(5-methylchroman-6-yl)-7-oxo-1-((tetrahydro-2H-pyran-4-yl)methyl)-6,7-dihydro-1H-pyrrolo[2,3-c]pyridin-5-yl)acetic acid] | 350 | 350
4 | COc1ccc(-c2c(C(OC(C)(C)C)C(=O)O)n(C)c(=O)c3c2ccn3Cc2ccc(F)cc2)cc1 (stereo not drawn) [Example 36, 2-(tert-butoxy)-2-(1-(4-fluorobenzyl)-4-(4-methoxyphenyl)-6-methyl-7-oxo-6,7-dihydro-1H-pyrrolo[2,3-c]pyridin-5-yl)acetic acid] | 60 | 60
5 | Cc1c(-c2c(C(OC(C)(C)C)C(=O)O)n(C)c(=O)c3c2ccn3Cc2cccc(F)c2)ccc2c1CCCO2 (stereo not drawn) [Example 45, 2-(tert-butoxy)-2-(1-(3-fluorobenzyl)-6-methyl-4-(5-methylchroman-6-yl)-7-oxo-6,7-dihydro-1H-pyrrolo[2,3-c]pyridin-5-yl)acetic acid] | 80 | 80
6 | Cc1ccc(-c2c(C(OC(C)(C)C)C(=O)O)n(C)c(=O)c3c2ccn3Cc2ccccc2)cc1 (stereo not drawn) [Example 19, 2-(1-benzyl-6-methyl-7-oxo-4-(p-tolyl)-6,7-dihydro-1H-pyrrolo[2,3-c]pyridin-5-yl)-2-(tert-butoxy)acetic acid] | 80 | 80
7 | Cc1ccc(-c2c(C(OC(C)(C)C)C(=O)O)n(C)c(=O)c3c2ccn3Cc2ccc(C(N)=O)cc2)cc1 (stereo not drawn) [Example 22, 2-(tert-butoxy)-2-(1-(4-carbamoylbenzyl)-6-methyl-7-oxo-4-(p-tolyl)-6,7-dihydro-1H-pyrrolo[2,3-c]pyridin-5-yl)acetic acid] | 8700 | 8700
8 | COc1ccc(Cn2ncc3c(-c4ccc(C)c(C)c4)c(C(OC(C)(C)C)C(=O)O)n(C)c(=O)c32)cc1 (stereo not drawn) [Example 63, 2-(tert-Butoxy)-2-(4-(3,4-dimethylphenyl)-1-(4-methoxybenzyl)-6-methyl-7-oxo-6,7-dihydro-1H-pyrazolo[3,4-c]pyridin-5-yl)acetic acid] | 1200 | 1200
9 | Cc1ccc(-c2c(C(OC(C)(C)C)C(=O)O)n(C)c(=O)c3c2ccn3Cc2ccc(Cl)c(F)c2)cc1 (stereo not drawn) [Example 31, 2-(tert-butoxy)-2-(1-(4-chloro-3-fluorobenzyl)-6-methyl-7-oxo-4-(p-tolyl)-6,7-dihydro-1H-pyrrolo[2,3-c]pyridin-5-yl)acetic acid] | 110 | 110
10 | CC(C)Cn1ccc2c(-c3ccc(Cl)cc3)c(C(OC(C)(C)C)C(=O)O)n(C)c(=O)c21 (stereo not drawn) [Example 5, 2-(tert-butoxy)-2-(4-(4-chlorophenyl)-1-isobutyl-6-methyl-7-oxo-6,7-dihydro-1H-pyrrolo[2,3-c]pyridin-5-yl)acetic acid] | 5000 | 5000
11 | Cc1c(-c2c(C(OC(C)(C)C)C(=O)O)n(C)c(=O)c3c2ccn3Cc2ccc(F)cc2)ccc2c1CCCO2 (atropisomer, axis not shown; (M)) [Example 41, (S)(M)-2-(tert-butoxy)-2-(1-(4-fluorobenzyl)-6-methyl-4-(5-methylchroman-6-yl)-7-oxo-6,7-dihydro-1H-pyrrolo[2,3-c]pyridin-5-yl)acetic acid] | 10 | 10
12 | Cc1nc(Cn2ccc3c(-c4ccc(Cl)cc4)c(C(OC(C)(C)C)C(=O)O)n(C)c(=O)c32)cs1 (stereo not drawn) [Example 11, 2-(tert-butoxy)-2-(4-(4-chlorophenyl)-6-methyl-1-((2-methylthiazol-4-yl)methyl)-7-oxo-6,7-dihydro-1H-pyrrolo[2,3-c]pyridin-5-yl)acetic acid] | 310 | 310
13 | Cc1c(-c2c(C(OC(C)(C)C)C(=O)O)n(C)c(=O)c3c2ccn3Cc2ccccc2)ccc2c1CCCO2 (stereo not drawn) [Example 38, 2-(1-benzyl-6-methyl-4-(5-methylchroman-6-yl)-7-oxo-6,7-dihydro-1H-pyrrolo[2,3-c]pyridin-5-yl)-2-(tert-butoxy)acetic acid] | 70 | 70
14 | Cc1c(-c2c(C(OC(C)(C)C)C(=O)O)n(C)c(=O)c3c2cnn3Cc2ccc(F)cc2)ccc2c1CCCO2 (stereo not drawn) [Example 67, 2-(tert-butoxy)-2-(1-(4-fluorobenzyl)-6-methyl-4-(5-methylchroman-6-yl)-7-oxo-6,7-dihydro-1H-pyrazolo[3,4-c]pyridin-5-yl)acetic acid] | 80 | 80
15 | COc1ccc(Cn2c3c(c4c(-c5ccc(C)cc5)c(C(OC(C)(C)C)C(=O)O)n(C)c(=O)c42)CCCC3)cc1 (stereo not drawn) [Example 61, 2-(tert-butoxy)-2-(9-(4-methoxybenzyl)-2-methyl-1-oxo-4-(p-tolyl)-2,5,6,7,8,9-hexahydro-1H-pyrido[3,4-b]indol-3-yl)acetic acid] | 100 | 100
16 | Cn1c(C(OC(C)(C)C)C(=O)O)c(-c2ccc(Cl)cc2)c2ccn(CCN3CCCCC3)c2c1=O (stereo not drawn) [Example 7, 2-(tert-butoxy)-2-(4-(4-chlorophenyl)-6-methyl-7-oxo-1-(2-(piperidin-1-yl)ethyl)-6,7-dihydro-1H-pyrrolo[2,3-c]pyridin-5-yl)acetic acid] | 1000 | 1000
17 | Cc1c(-c2c(C(OC(C)(C)C)C(=O)O)n(C)c(=O)c3c2cnn3Cc2ccccn2)ccc2c1CCCO2 (stereo not drawn) [Example 66, 2-(tert-Butoxy)-2-(6-methyl-4-(5-methylchroman-6-yl)-7-oxo-1-(pyridin-2-ylmethyl)-6,7-dihydro-1H-pyrazolo[3,4-c]pyridin-5-yl)acetic acid] | 1360 | 1360
18 | Cc1ccc(-c2c(C(OC(C)(C)C)C(=O)O)n(C)c(=O)c3c2ccn3Cc2ccc(S(C)(=O)=O)cc2)cc1 (stereo not drawn) [Example 27, 2-(tert-butoxy)-2-(6-methyl-1-(4-(methylsulfonyl)benzyl)-7-oxo-4-(p-tolyl)-6,7-dihydro-1H-pyrrolo[2,3-c]pyridin-5-yl)acetic acid] | 3850 | 3850
19 | Cc1ccc(-c2c(C(OC(C)(C)C)C(=O)O)n(C)c(=O)c3c2c2c(n3Cc3ccc(F)cc3)CCOC2)cc1 (stereo not drawn) [Example 58, 2-(tert-butoxy)-2-(5-(4-fluorobenzyl)-7-methyl-6-oxo-9-(p-tolyl)-1,3,4,5,6,7-hexahydropyrano[3′,4′:4,5]pyrrolo[2,3-c]pyridin-8-yl)acetic acid] | 750 | 750
20 | Cc1c(-c2c(C(OC(C)(C)C)C(=O)O)n(C)c(=O)c3c2ccn3Cc2cscn2)ccc2c1CCCO2 (stereo not drawn) [Example 50, 2-(tert-butoxy)-2-(6-methyl-4-(5-methylchroman-6-yl)-7-oxo-1-(thiazol-4-ylmethyl)-6,7-dihydro-1H-pyrrolo[2,3-c]pyridin-5-yl)acetic acid, Trifluoroacetic acid salt] | 230 | 230
21 | Cc1ccc(-c2c(C(OC(C)(C)C)C(=O)O)n(C)c(=O)c3c2ccn3Cc2ccc(SC(F)(F)F)cc2)cc1 (stereo not drawn) [Example 23, 2-(tert-butoxy)-2-(6-methyl-7-oxo-4-(p-tolyl)-1-(4-((trifluoromethyl)thio)benzyl)-6,7-dihydro-1H-pyrrolo[2,3-c]pyridin-5-yl)acetic acid] | 1500 | 1500
22 | Cn1c(C(OC(C)(C)C)C(=O)O)c(-c2ccc(Cl)cc2)c2ccn(Cc3ccc(C(F)(F)F)o3)c2c1=O (stereo not drawn) [Example 9, 2-(tert-butoxy)-2-(4-(4-chlorophenyl)-6-methyl-7-oxo-1-((5-(trifluoromethyl)furan-2-yl)methyl)-6,7-dihydro-1H-pyrrolo[2,3-c]pyridin-5-yl)acetic acid] | 1250 | 1250
23 | Cc1c(-c2c(C(OC(C)(C)C)C(=O)O)n(C)c(=O)c3c2ccn3Cc2ccccn2)ccc2c1CCCO2 (stereo not drawn) [Example 42, 2-(tert-butoxy)-2-(6-methyl-4-(5-methylchroman-6-yl)-7-oxo-1-(pyridin-2-ylmethyl)-6,7-dihydro-1H-pyrrolo[2,3-c]pyridin-5-yl)acetic acid] | 540 | 540
24 | Cn1c(C(OC(C)(C)C)C(=O)O)c(-c2ccc(Cl)cc2)c2ccn(Cc3ccc(F)cc3)c2c1=O (stereo not drawn) [Example 2, 2-(tert-butoxy)-2-(4-(4-chlorophenyl)-1-(4-fluorobenzyl)-6-methyl-7-oxo-6,7-dihydro-1H-pyrrolo[2,3-c]pyridin-5-yl)acetic acid] | 160 | 160
